ChEMBL document CHEMBL1201862, “PubChem BioAssay data set” (2004)
Active and inactive are the calls of the source.

Experiments:
Cytochrome P450 2C19 = Cytochrome P450 2C19 (Homo sapiens, UniProt P33261); assay: Cytochrome panel assay with activity outcomes. Panel member name: p450-cyp2c19 Compounds with AC50 equal or less than 10 uM are considered active; format: functional; details: read-out: AC50
[1] = target: T1, Short transient receptor potential channel 4 (Mus musculus, UniProt Q9QUQ5); assay: potentiation of DAMGO-evoked TRPC4 calcium signal – cell-based, HEK293 TRPC4/mu-opioid, Fluo-4 calcium, EC20 DAMGO, dose response (AID 434941); format: functional
T1 sequence (Q9QUQ5 whole entry): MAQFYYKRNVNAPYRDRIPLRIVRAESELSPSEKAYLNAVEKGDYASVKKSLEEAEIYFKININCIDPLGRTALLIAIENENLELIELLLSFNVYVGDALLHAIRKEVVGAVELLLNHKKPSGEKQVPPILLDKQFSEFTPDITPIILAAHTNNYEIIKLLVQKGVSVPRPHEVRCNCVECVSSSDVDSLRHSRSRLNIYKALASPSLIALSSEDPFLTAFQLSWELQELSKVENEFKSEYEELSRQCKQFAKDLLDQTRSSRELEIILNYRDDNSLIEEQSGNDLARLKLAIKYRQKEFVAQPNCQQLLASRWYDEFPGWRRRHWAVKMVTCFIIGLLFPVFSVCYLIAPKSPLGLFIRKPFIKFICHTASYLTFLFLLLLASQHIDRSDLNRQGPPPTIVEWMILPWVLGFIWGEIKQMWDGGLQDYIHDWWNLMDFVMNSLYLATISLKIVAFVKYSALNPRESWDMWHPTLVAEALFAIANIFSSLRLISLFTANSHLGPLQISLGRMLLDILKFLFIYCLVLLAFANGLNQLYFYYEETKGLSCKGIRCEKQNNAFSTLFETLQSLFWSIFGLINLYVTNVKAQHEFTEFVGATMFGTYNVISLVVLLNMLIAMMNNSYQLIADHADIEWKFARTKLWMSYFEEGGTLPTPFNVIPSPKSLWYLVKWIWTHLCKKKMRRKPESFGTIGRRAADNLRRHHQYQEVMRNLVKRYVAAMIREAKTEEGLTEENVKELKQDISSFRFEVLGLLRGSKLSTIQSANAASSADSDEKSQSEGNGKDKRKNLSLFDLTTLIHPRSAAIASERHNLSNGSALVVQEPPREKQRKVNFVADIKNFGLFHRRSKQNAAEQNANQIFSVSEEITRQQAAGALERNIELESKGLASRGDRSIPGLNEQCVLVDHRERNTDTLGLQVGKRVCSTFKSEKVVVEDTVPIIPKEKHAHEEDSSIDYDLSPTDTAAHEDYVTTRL

[2] = target: T1, Short transient receptor potential channel 4; assay: calcium entry via TRPC4 opening agents – cell-based, HEK293 TRPC4/mu-opioid, Fluo-4 calcium, dose response (AID 434937); format: functional
Cytochrome P450 2D6 = Cytochrome P450 2D6 (Homo sapiens, UniProt P10635);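 further: CYP2D6 member of a cytochrome P450 panel assay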
Caspase-3 = target: T2, Caspase-3 (Homo sapiens, UniProt P42574); assay: activators of human procaspase-3 D3A mutant – biochemical, absorbance, PC-3 D3A mutant, counter-screen for dual procaspase-3/7 activator project, dose response (AID 504328)
T2 sequence (P42574 whole entry): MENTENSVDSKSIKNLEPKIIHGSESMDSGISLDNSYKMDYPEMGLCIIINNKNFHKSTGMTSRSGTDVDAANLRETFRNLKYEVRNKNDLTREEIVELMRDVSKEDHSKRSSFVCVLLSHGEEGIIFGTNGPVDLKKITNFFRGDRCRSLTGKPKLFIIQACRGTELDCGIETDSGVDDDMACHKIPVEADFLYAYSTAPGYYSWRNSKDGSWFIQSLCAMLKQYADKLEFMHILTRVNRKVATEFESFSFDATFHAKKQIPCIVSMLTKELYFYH

Caspase-7 = Caspase-7 (Homo sapiens, UniProt P55210); assay: potency of procaspase-7 enzyme activation – biochemical, absorbance, human, dual procaspase-3/-7 activator project, dose response (AID 504330)
[3] = blockers of HIV-1 ZM109 envelope-driven cell-cell fusion – HeLa effector, CEM target cells, luciferase, cherry-pick, dose response (AID 652058); format: functional, cell-based;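 further: luciferase signal from HIV-1 Env mediated cell-cell fusion of effector and target cells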
HEK293 [4] = assay: optical interference in Abeta FP readout, dose response, artefact control for IDE activator project, biochemical, fluorescence polarization (AID 588442); format: functional, cell-based; details: Homo sapiens
[5] = viability loss in CEM21 cells – cell-based, CellTiter-Glo luminescence, cherry-picked, cytotoxicity control for viral fusion inhibitor project, dose response (AID 652042); format: functional;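 further: potency for signal decrease meaning cytotoxicity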
[6] = off-target signal loss in HeLa-CEM21 co-culture – HeLa F-luc CTL cells, cherry-picked, counter-screen for HIV-1 Env fusion inhibitor project, dose response (AID 652040); format: functional, cell-based;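 further: potency for signal decrease marking cytotoxic or nonspecific inhibition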
[7] = Trypanosoma cruzi growth suppression in host cells – NIH3T3 host cells, beta-gal luminescence, confirmation (AID 2044); format: functional, cell-based;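 further: intracellular parasites grown in NIH/3T3 mouse fibroblasts as host cells; luminescent beta-galactosidase reporter signal from transgenic T. cruzi replicating inside host cells; inhibitors lower the luminescence signal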
INS1 = assay: INS-1E survival protection against cytokine death – cell-based, luminescence, retest, dose response (AID 449756); format: functional; details: Rattus norvegicus;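 further: cell death triggered by IL-1 beta plus TNF-alpha plus IFN-gamma mixture; protective hits raise ATP signal compared with cytokine alone wells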
Insulin-degrading enzyme [8] = target: T3, Insulin-degrading enzyme (Homo sapiens, UniProt P14735); assay: recombinant IDE activation, cell-free – biochemical, fluorescence polarization, counter-screen for IDE activator project, dose response (AID 588681)
T3 sequence (P14735 whole entry): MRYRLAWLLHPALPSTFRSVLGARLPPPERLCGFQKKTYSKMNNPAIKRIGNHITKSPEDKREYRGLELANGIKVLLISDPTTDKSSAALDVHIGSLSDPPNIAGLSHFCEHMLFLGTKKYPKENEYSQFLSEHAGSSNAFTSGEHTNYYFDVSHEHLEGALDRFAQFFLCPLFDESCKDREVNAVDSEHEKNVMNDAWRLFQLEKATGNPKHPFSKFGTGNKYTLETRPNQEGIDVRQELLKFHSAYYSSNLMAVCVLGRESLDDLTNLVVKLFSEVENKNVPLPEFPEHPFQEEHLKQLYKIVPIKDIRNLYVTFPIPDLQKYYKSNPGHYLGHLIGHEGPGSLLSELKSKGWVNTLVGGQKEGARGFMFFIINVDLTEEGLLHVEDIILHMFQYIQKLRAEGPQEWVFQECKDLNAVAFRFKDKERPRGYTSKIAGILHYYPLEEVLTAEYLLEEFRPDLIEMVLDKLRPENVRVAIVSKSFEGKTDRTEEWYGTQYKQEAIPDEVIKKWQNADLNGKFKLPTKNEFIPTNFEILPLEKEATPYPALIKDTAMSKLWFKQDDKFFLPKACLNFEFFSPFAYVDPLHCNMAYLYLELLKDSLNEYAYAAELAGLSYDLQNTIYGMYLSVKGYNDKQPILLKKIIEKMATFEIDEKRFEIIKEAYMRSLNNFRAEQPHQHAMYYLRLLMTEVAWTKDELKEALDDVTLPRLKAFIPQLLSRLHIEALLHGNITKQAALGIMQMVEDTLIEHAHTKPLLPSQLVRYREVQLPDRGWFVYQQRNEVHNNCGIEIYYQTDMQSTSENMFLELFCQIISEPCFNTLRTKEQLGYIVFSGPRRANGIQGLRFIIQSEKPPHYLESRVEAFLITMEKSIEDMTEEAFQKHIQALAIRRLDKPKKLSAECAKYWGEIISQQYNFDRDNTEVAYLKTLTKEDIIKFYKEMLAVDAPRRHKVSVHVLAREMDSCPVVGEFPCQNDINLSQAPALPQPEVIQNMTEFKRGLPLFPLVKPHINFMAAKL

[9] = HIV-1 AD8 envelope cell-cell fusion blockers – cherry-pick, dose response (AID 652062); format: functional, cell-based;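 further: luciferase signal from cell-cell fusion driven by HIV-1 clade B AD8 Env; potency is for inhibitors of fusion seen as a drop in luminescence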
[10] = target: Neurotensin receptor type 1 (Homo sapiens, UniProt P30989); format: functional;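 further: Image-based confirmatory dose-response assay measuring agonist activity at NTR1; NTR1-expressing U2OS osteosarcoma cells imaged for beta-arrestin GFP spot formation; agonist potency where compounds increase beta-arrestin recruitment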
[11] = blockers of HIV-1 envelope-mediated cell-cell fusion – cherry-pick, dose response (AID 652057); format: functional, cell-based
[12] = NIH3T3 cell viability loss – ATP luminescence, mouse fibroblasts, counter-screen, dose response (AID 2010); format: functional, cell-based;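 further: cells exposed to compound for about 90 hours before reading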
[13] = target: G-protein coupled receptor 55 (Homo sapiens, UniProt Q9Y2T6); assay: selective activators of receptor GPR55 – imaging, U2OS cells, beta-arrestin-GFP redistribution, primary screen (AID 1961); format: functional
Insulin-degrading enzyme [14] = target: T3, Insulin-degrading enzyme; assay: cellular IDE activation of Abeta substrate cleavage – fluorescence polarization, HEK cells, dose response (AID 588439); format: functional, cell-based
HEK293 [15] = assay: membrane integrity loss in HEK cells – cell-based, fluorescence, cytotoxicity control for IDE activator project, dose response (AID 588440); format: functional; details: Homo sapiens;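 further: cytotoxicity by LDH release measuring loss of membrane integrity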
[16] = target: NACHT, LRR and PYD domains-containing protein 1 (Homo sapiens, UniProt Q9C000); assay: NALP1 inhibitors in yeast, dose response, luminescent (AID 488860); format: functional
Saccharomyces cerevisiae = assay: S. cerevisiae Caspase-1/ASC signal blockers IC50, NALP1 inhibitor project selectivity test (AID 488863); format: functional, organism-based
[17] = target: 1-acylglycerol-3-phosphate O-acyltransferase ABHD5/Perilipin-5 (Homo sapiens, UniProt Q00G26+Q8WTS1); assay: Luminescence-based biochemical high throughput dose response assay for inhibitors of the interaction of the lipase co-activator protein, abhydrolase domain containing 5 (ABHD5) with perilipin-5 (MLDP; PLIN5) (2K validation set). [Related pubchem assays (depositor defined):AID493035, AID493241]
Perilipin-1/ABHD5 = Perilipin-1/ABHD5 (Homo sapiens, UniProt O60240+Q8WTS1); assay: Luminescence-based biochemical high throughput dose response assay for inhibitors of the interaction of the lipase co-activator protein, abhydrolase domain containing 5 (ABHD5) with perilipin-1 (PLIN1) (2K validation set). [Related pubchem assays (depositor defined):AID493027, AID493057]
Perilipin-1/ABHD5, sequence (Q8WTS1 whole entry, the tested form may be a part): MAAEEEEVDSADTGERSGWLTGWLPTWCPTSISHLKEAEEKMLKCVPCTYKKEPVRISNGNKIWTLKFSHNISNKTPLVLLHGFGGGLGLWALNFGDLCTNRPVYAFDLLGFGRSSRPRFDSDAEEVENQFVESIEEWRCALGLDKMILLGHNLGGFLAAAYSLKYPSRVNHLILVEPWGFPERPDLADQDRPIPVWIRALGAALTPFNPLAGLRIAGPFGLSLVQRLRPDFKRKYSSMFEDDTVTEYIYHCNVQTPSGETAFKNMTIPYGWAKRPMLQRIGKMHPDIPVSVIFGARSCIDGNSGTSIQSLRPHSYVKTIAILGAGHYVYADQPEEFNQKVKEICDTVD
Perilipin-1/ABHD5, sequence (O60240 whole entry, the tested form may be a part): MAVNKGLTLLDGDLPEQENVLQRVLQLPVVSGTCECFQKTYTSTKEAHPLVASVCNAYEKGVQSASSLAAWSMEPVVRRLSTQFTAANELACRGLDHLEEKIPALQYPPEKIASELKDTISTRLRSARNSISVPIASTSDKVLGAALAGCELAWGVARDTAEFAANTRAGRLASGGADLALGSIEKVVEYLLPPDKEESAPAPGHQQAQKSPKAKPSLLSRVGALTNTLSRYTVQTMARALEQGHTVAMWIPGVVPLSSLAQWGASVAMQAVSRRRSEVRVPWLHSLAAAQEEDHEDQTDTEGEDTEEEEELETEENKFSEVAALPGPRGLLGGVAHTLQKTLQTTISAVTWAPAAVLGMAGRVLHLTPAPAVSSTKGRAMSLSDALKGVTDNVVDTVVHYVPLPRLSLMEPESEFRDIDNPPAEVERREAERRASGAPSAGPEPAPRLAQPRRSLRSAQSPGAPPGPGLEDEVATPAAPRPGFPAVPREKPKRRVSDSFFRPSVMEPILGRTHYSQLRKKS

Neurotensin receptor type 1, sequence (P30989 whole entry, the tested form may be a part): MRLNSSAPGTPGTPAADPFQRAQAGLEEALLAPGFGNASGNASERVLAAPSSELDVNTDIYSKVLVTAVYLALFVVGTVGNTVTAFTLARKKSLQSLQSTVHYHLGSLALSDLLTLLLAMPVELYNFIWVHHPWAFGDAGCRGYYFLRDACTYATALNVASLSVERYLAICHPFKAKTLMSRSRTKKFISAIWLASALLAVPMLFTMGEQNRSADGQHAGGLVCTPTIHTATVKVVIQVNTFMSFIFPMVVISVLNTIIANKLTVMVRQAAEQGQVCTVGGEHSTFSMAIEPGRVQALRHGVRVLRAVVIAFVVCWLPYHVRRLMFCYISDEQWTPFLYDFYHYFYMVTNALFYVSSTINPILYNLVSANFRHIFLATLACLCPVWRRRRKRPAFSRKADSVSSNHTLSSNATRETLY
Cytochrome P450 2C19, sequence (P33261 whole entry): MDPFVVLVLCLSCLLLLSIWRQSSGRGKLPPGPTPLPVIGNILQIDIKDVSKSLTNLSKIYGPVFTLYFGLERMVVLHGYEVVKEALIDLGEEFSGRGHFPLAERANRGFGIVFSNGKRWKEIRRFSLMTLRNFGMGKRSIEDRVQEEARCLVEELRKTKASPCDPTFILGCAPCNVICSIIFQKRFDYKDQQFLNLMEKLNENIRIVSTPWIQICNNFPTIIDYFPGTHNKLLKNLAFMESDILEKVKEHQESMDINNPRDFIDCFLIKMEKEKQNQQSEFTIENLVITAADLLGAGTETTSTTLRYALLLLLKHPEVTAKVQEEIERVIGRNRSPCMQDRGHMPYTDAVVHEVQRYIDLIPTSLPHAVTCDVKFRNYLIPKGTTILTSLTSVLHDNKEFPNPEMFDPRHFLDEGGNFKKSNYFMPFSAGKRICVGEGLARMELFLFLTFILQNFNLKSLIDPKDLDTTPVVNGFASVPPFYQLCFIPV
Cytochrome P450 2D6, sequence (P10635 whole entry): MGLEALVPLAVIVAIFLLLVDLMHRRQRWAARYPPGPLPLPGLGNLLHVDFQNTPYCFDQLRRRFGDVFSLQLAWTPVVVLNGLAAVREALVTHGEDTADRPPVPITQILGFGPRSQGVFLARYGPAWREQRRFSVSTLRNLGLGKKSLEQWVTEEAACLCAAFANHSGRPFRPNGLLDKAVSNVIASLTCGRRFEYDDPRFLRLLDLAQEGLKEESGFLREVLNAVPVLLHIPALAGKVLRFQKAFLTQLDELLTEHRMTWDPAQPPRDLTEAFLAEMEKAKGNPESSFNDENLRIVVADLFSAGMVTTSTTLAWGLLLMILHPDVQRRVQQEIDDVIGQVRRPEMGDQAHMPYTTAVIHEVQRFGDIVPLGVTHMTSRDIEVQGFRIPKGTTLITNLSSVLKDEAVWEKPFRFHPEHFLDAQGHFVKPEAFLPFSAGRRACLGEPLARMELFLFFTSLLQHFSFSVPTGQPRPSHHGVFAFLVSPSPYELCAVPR
1-acylglycerol-3-phosphate O-acyltransferase ABHD5/Perilipin-5, sequence (Q00G26 whole entry, the tested form may be a part): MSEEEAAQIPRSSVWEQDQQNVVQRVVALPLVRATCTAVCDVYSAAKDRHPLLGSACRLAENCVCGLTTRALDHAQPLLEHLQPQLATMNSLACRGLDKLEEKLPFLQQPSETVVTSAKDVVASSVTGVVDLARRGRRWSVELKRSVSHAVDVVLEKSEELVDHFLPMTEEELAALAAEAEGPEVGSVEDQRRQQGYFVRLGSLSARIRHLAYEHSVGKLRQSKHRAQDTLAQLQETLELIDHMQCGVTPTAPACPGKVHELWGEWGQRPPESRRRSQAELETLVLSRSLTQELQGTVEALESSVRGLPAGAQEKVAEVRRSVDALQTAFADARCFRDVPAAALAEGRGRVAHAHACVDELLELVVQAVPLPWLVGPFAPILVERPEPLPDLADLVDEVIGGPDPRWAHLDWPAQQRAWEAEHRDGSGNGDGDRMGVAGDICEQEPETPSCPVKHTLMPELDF
1-acylglycerol-3-phosphate O-acyltransferase ABHD5/Perilipin-5, sequence (Q8WTS1 whole entry, the tested form may be a part): as the sequence (Q8WTS1 whole entry, the tested form may be a part) above
G-protein coupled receptor 55, sequence (Q9Y2T6 whole entry): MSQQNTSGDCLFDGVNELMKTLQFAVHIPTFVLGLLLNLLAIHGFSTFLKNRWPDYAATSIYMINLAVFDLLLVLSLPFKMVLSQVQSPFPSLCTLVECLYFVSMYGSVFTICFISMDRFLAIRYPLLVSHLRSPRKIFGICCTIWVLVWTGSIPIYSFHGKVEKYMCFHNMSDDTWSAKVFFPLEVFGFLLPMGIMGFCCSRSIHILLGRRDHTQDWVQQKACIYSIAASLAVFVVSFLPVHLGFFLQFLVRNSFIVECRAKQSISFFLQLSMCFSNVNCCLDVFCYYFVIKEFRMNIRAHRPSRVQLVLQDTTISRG
NACHT, LRR and PYD domains-containing protein 1, sequence (Q9C000 1-1212 limits assumed): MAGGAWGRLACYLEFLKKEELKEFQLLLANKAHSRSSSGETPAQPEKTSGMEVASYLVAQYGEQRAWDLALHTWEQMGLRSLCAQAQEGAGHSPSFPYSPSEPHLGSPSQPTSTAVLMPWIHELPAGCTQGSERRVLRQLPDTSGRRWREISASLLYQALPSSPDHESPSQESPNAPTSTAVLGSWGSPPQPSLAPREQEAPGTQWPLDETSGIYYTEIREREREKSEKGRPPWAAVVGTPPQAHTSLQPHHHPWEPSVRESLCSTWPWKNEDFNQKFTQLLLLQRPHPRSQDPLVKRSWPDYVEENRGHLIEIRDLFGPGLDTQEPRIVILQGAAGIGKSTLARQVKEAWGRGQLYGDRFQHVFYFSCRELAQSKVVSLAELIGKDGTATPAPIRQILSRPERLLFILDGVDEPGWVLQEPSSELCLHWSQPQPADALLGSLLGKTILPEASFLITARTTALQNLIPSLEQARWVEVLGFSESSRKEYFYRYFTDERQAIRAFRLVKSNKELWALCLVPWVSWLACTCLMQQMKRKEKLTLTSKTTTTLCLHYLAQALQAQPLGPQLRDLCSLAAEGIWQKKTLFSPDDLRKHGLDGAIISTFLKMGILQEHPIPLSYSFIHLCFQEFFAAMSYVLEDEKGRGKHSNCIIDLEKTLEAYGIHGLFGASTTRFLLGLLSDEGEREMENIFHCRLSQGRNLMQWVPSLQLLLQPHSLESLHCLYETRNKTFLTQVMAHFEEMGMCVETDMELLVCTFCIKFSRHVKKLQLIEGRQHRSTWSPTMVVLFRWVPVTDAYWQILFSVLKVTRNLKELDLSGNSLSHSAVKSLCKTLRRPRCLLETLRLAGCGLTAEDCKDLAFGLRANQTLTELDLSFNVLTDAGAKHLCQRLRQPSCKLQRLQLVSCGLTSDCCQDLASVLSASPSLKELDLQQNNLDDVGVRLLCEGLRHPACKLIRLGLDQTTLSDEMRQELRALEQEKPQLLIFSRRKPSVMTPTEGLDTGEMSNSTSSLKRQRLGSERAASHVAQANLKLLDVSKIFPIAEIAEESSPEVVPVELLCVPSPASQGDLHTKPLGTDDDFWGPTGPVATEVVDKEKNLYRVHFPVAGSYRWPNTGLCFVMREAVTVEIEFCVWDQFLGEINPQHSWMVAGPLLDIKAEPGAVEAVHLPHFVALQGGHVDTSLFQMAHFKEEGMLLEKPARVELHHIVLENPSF
NACHT, LRR and PYD domains-containing protein 1, sequence (Q9C000 1213-1473 limits assumed): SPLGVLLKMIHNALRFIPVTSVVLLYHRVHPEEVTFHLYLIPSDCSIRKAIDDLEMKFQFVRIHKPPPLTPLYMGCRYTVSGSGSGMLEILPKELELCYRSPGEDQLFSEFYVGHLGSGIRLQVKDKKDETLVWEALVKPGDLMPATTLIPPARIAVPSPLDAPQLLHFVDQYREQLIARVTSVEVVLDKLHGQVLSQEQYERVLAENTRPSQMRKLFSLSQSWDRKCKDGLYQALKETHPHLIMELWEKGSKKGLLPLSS

Cc1cc(OCCNCCO)cc(C)c1Cl
AC50 (Cytochrome P450 2C19): 7.08 µM (inconclusive) | EC50 [1]: 0.09 µM (active) | EC50 [2]: 0.841 µM (active) | AC50 (Cytochrome P450 2D6): 25.1 µM (inconclusive)

COc1ccc(-c2cc(C(=O)OC3CCOC3=O)c3ccccc3n2)cc1OC (stereo not given)
EC50 (Caspase-3): > 85.3 µM (inactive) | EC50 (Caspase-7): > 85.3 µM (inactive)

CC1CCC(C(C)C)C(OC(=O)Cn2c(COc3ccccc3)[n+](C)c3ccccc32)C1 (stereo not given)
AC50 [3]: 6.35 µM (active) | EC50 (HEK293 [4]): > 54.7 µM (inactive) | AC50 [5]: 6.94 µM (active) | AC50 [6]: 6.69 µM (active) | EC50 [7]: 0.588 µM (active) | AC50 (INS1): 6.26 µM (active) | EC50 (Insulin-degrading enzyme [8]): > 54.7 µM (inactive) | AC50 [9]: 8.6 µM (active) | EC50 [10]: 14 µM (active) | AC50 [11]: 3.26 µM (active) | EC50 [12]: > 60 µM (not active) | EC50 [13]: > 32 µM (inactive) | EC50 (Insulin-degrading enzyme [14]): > 54.7 µM (inactive) | IC50 (HEK293 [15]): 17.4 µM (inactive)

O=C(NCCCc1ccccc1)c1ccccc1O
IC50 [16]: 13.1 µM (active) | IC50 (Saccharomyces cerevisiae): 11.5 µM (active)

O=C1ON=C(c2ccc(Cl)cc2)/C1=C/c1ccc(O)cc1
IC50 [17]: 3.1 µM (active) | IC50 (Perilipin-1/ABHD5): 2.28 µM (active) | EC50 [10]: 8.29 µM (active)
